# Results published in patent publication US12528840B2, “Transcription active complex targeting cancer drug from viral protein sequence” (The Regents of the University of California, priority 2020, dated 2026).
# Tests used:
# PEL cells = assay: PEL cell killing by delivered peptide (MTS live-cell assay); format: cell-based; details: peptide delivered into PEL, a MYC-dependent cancer
# Description: FIGS. 1A-H. Viral protein sequence based cancer drug. (FIG. 1A) Discovery of hijacking transcription machinery in KSHV reactivating cells (Chen et al., J. Virol 2017). […] (FIG. 1B) Reporter assay. KSHV ORF50 overexpression inhibits MYC activation. (FIG. 1C) Chromatin immunoprecipitation with Mass Spectrometry. Proteins inducibly interact with both ORF50 and RNA polII are shown. […] (FIG. 1E) Mapping of interacting domain. GST-pull down was performed to identify NCoA2 binding domains. Purified NCoA2 was made from recombinant baculovirus infected cells and KSHV ORF50 deletion proteins were made in E. coli. Peptides are then generated as TAT-fusion for cell penetration. (FIG. 1F) ChIP-seq and RNA-seq. ChIP-seq was performed to identify NCOA2 target genes in primary effusion lymphoma cells. NCoA2 localization is highly associated with active genes and localizes with RNA pol II at enhancer regions. […] The qRT-PCR was performed with specific primers. (FIG. 1H) Gene set enrichment analyses (GSEA). RNA sequencing was performed with peptide-treated PEL cells. […] (FIG. 1I) The peptide drug. Wt peptide or mutant peptide was incubated in culture media. Forty-eight hours later, live cells were measured by applying MTS. Cell viability was compared with no-treated samples. No treated sample was set as 1.
# THP-1 = assay: MTT assay, THP-1; format: cell-based; details: THP-1 monocytic leukemia cell line
# Description: FIG. 6. Viral and cellular responses to K-Rta peptide; identification of VGN50. (a) Protein sequence alignment. FIG. 6(A) The effect of VGN50 on various cancer cell types. MTT assays were performed with the indicated cell lines treated with various VGN50 concentrations. The O.D. of mock-treated samples were set as 100%, and O.D. from detergent treated cells were set as 0%. Percentage viability+/−SD was calculated for each treatment (N=3 samples/treatment). FIG. 6(B) Viability assay with flow cytometry. Cell viability was measured in triplicate with live/dead staining and the cell killing effects on cancer cells was compared with normal peripheral blood mononuclear cells (PBMC) from three healthy donors. Results are presented as percentage viability+/−SD deviation (N=3 samples/group).
# As shown in FIG. 6(a), multiple cancer cell lines were used for MTT assay to evaluate cancer cell killing efficacies of the MBK50 peptide at different concentrations (cell variability studies). […] Importantly, human peripheral blood mononuclear cells (PBMCs) from healthy donors were approximately 10-fold less sensitive to MBK-mediated killing compared to myeloid and lymphoid cancer cell lines (e.g., THP-1 and BCBL-1) as assessed by flow cytometry after live/dead staining (FIG. 6(b)). […]
sequence,measurement,setting,value
LSSILQGLYQLDT [MBK50],killing of PEL cancer cells,PEL cells,killed the cancer cells
same,sensitivity to cell killing,THP-1,sensitive
